According to PMC9082326 (RSC Advances, 2019):
Where two headings read alike, the source gives them in different places.

Key:
[1] = biological target: T1, hERG (Homo sapiens, UniProt Q12809); assay: Western blot of hERG maturation; format: cell-based; conditions: 24 h, HEK-hERG; for hERG maturation (mature/immature ratio), dose–response: 0.5–20 μM
[2] = tested on: Pneumocystis; conditions: cited from earlier work
[3] = tested on: mammalian cell lines; conditions: cited from earlier work
[4] = biological target: T1, hERG; assay: Immunofluorescence microscopy of hERG localization in HEK-hERG cells; format: cell-based; conditions: 24 h, pentamidine 10 μM, analogues 10 μM

T1 sequence (Q12809 whole entry): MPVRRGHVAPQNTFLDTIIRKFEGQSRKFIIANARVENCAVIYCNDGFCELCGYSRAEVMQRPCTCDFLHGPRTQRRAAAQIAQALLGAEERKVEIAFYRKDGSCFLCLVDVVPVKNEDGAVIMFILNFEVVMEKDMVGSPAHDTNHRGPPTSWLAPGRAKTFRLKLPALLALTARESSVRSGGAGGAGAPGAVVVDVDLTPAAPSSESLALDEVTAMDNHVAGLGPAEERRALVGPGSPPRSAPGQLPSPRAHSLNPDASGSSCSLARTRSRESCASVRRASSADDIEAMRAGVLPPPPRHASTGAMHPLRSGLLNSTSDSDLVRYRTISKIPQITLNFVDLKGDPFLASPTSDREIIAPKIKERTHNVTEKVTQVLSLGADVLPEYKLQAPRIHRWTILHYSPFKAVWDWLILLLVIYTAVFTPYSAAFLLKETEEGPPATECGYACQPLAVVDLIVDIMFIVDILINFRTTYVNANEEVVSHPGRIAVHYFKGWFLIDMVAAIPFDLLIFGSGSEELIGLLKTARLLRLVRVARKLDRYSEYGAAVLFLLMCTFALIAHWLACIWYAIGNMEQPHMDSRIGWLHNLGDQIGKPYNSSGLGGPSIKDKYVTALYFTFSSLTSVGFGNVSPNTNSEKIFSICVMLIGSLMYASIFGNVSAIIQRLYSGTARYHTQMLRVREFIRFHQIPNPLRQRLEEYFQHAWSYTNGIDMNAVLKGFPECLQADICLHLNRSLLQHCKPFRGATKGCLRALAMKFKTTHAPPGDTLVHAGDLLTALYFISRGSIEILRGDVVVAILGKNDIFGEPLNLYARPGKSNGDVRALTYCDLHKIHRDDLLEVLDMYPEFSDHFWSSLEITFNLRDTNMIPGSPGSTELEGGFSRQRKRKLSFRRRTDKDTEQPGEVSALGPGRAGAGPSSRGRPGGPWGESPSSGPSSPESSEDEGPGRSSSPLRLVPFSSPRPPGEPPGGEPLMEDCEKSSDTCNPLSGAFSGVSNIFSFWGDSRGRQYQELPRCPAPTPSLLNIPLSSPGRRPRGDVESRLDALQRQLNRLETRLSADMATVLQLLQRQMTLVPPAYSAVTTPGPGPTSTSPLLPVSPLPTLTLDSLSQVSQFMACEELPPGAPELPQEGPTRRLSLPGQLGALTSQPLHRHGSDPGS

SMILES	cytotoxicity ([3]; mammalian cell lines)	hERG maturation (mature/immature ratio), dose–response [1]	subcellular localization / membrane expression of hERG [4]	other results
CN(CCOc1ccc(NS(C)(=O)=O)cc1)CCc1ccc(NS(C)(=O)=O)cc1 [Dofetilide, reference compound]				hERG maturation (mature/immature ratio) ([1]; pentamidine 10 μM, dofetilide 1 μM, analogues 1 and 10 μM): increases
Cc1cc(C(=N)N)cc(C)c1OCCN(CCOc1c(C)cc(C(=N)N)cc1C)S(=O)(=O)c1ccccc1.Cl.Cl [3-phenylsulfonyl-1,5-bis(4-amidino-2,6-dimethylphenoxy)-3-azapentane dihydrochloride, reference compound]				anti-Pneumocystis activity [2]: promising activity; cytotoxicity [3]: very low cytotoxicity
Cl.Cl.c1cc(C2=NCCN2)ccc1OCCSCCOc1ccc(C2=NCCN2)cc1 [Compound 4, 1,5-bis[4-(4,5-dihydro-2-imidazolyl)phenoxy]-3-thiapentane dihydrochloride]	less or moderate cytotoxicity			
Cl.Cl.N=C(N)c1ccc(OCCSCCOc2ccc(C(=N)N)cc2)cc1 [Compound 1, 1,5-bis(4-amidinophenoxy)-3-thiapentane dihydrochloride]	less or moderate cytotoxicity	dose-dependently decreased	pattern comparable with control cells and clear membrane staining was detected	
Cl.Cl.N=C(N)c1ccc(SCCOCCSc2ccc(C(=N)N)cc2)cc1 [Compound 2, 1,5-bis[4-(amidino)phenylthio]-3-oxapentane dihydrochloride]		dose-dependently decreased	pattern comparable with control cells and clear membrane staining was detected	
